Data: US7704995B2 (Exelixis, Inc., priority 2003, dated 2010)

Each molecule was assayed against T1, Chk1 (Homo sapiens, UniProt O14757) (assay: Chk1 kinase assay: incorporation of γ-33P ATP into immobilized myelin basic protein). Settings: Table 11; Chk1 only; read-out: Chk1 IC50.
T1 construct: purchased Upstate Biotechnology
T1 sequence (O14757 1-476): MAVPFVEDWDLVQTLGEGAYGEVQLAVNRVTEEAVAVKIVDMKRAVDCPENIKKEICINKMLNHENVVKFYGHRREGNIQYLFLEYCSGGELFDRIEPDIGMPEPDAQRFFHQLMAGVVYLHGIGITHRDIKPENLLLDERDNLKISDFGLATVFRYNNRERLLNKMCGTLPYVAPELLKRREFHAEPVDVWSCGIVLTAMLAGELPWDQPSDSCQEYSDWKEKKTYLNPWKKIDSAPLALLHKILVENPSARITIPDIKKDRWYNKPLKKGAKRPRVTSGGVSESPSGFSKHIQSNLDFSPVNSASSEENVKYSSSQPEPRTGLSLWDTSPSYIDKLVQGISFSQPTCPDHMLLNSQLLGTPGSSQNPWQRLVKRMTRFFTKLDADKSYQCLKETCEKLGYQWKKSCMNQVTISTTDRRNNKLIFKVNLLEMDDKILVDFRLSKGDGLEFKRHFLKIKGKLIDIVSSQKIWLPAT
Assay type: biochemical
Outline: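 MBP coated on plates (20 μg/ml) was phosphorylated by Chk1 (10 nM) or Chk2 (20 nM) with γ-33P ATP plus 10 μM (Chk1) or 30 μM (Chk2) unlabeled ATP, 1 h at room temperature, 1% DMSO. Bound radioactivity was counted by scintillation after washing; IC50 or Ki derived from fitted rate data.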

SMILES | IC50
CNC(=O)c1nc(-c2cccc(CN[C@@H](C)c3ccccc3)c2)cnc1N [Example 427, 3-amino-N-methyl-6-[3-({[(1S)-1-phenylethyl]amino}methyl)phenyl]pyrazine-2-carboxamide] | 50 to 1000 nM
CNC(=O)c1nc(-c2cccc(CN[C@@H](CO)c3ccccc3)c2)cnc1N [Example 428, 3-amino-6-[3-({[(1R)-2-hydroxy-1-phenylethyl]amino}methyl)phenyl]-N-methylpyrazine-2-carboxamide] | 50 to 1000 nM
CNC(=O)c1nc(-c2cccc(CN[C@H](C(=O)OC)c3ccccc3)c2)cnc1N [Example 429, methyl (2S)-{[(3-{5-amino-6-[(methylamino)carbonyl]pyrazin-2-yl}phenyl)methyl]amino}(phenyl)ethanoate] | 1000 to 10000 nM
CNC(=O)c1nc(-c2cccc(C(=O)NNc3cc(F)ccc3F)c2)cnc1N [Example 430, 3-amino-6-(3-{[2-(2,5-difluorophenyl)hydrazino]carbonyl}phenyl)-N-methylpyrazine-2-carboxamide] | 50 to 1000 nM
CNC(=O)c1nc(-c2cccc(C(=O)NNc3c(F)c(F)c(C)c(F)c3F)c2)cnc1N [Example 431, 3-amino-N-methyl-6-(3-{[2-(2,3,5,6-tetrafluoro-4-methylphenyl)hydrazino]carbonyl}phenyl)pyrazine-2-carboxamide] | 50 to 1000 nM

Same assay, conditions: read-out: Chk1 IC50

SMILES | IC50
CNC(=O)c1nc(-c2cccc(CNCc3c(OC)cccc3OC)c2)cnc1N [Example 398, 3-amino-6-{3-[({[2,6-bis(methyloxy)phenyl]methyl}amino)methyl]phenyl}-N-methylpyrazine-2-carboxamide] | 50 to 1000 nM
CNC(=O)c1nc(-c2cccc(CNCc3ccccc3F)c2)cnc1N [Example 399, 3-amino-6-[3-({[(2-fluorophenyl)methyl]amino}methyl)phenyl]-N-methylpyrazine-2-carboxamide] | < 50 nM
CNC(=O)c1nc(-c2cncc(C(=O)NCc3c(F)cccc3F)c2)cnc1N [Example 400, 3-amino-6-[5-({[(2,6-difluorophenyl)methyl]amino}carbonyl)pyridin-3-yl]-N-methylpyrazine-2-carboxamide] | 50 to 1000 nM
CNC(=O)c1nc(-c2cncc(C(=O)NCc3ccccc3-c3ccccc3)c2)cnc1N [Example 401, 3-amino-6-(5-{[(biphenyl-2-ylmethyl)amino]carbonyl}pyridin-3-yl)-N-methylpyrazine-2-carboxamide] | 50 to 1000 nM
CNC(=O)c1nc(-c2cccc(CNCc3c(F)cccc3F)c2)cnc1N [Example 402, 3-amino-6-[3-({[(2,6-difluorophenyl)methyl]amino}methyl)phenyl]-N-methylpyrazine-2-carboxamide] | 50 to 1000 nM
CNC(=O)c1nc(-c2cccc(CNCc3ccc4c(c3)OCCO4)c2)cnc1N [Example 403, 3-amino-6-(3-{[(2,3-dihydro-1,4-benzodioxin-6-ylmethyl)amino]methyl}phenyl)-N-methylpyrazine-2-carboxamide] | 50 to 1000 nM
CNC(=O)c1nc(-c2cccc(CNCc3ccccc3N3CCCCC3)c2)cnc1N [Example 404, 3-amino-N-methyl-6-[3-({[(2-piperidin-1-ylphenyl)methyl]amino}methyl)phenyl]pyrazine-2-carboxamide] | 50 to 1000 nM
CNC(=O)c1nc(-c2cccc(C(=O)NCc3ccc(F)cc3C(F)(F)F)c2)cnc1N [Example 405, 3-amino-6-{3-[({[4-fluoro-2-(trifluoromethyl)phenyl]methyl}amino)carbonyl]phenyl}-N-methylpyrazine-2-carboxamide] | 50 to 1000 nM
CNC(=O)c1nc(-c2cccc(C(=O)NCc3ccc(C(F)(F)F)nc3)c2)cnc1N [Example 406, 3-amino-N-methyl-6-{3-[({[6-(trifluoromethyl)pyridin-3-yl]methyl}amino)carbonyl]phenyl}pyrazine-2-carboxamide] | 50 to 1000 nM
CNC(=O)c1nc(-c2cccc(-c3nc4ccccc4[nH]3)c2)cnc1N [Example 407, 3-amino-6-[3-(1H-benzimidazol-2-yl)phenyl]-N-methylpyrazine-2-carboxamide] | 50 to 1000 nM
CNC(=O)c1nc(-c2cccc(CNCc3cc(Cl)ccc3Cl)c2)cnc1N [Example 408, 3-amino-6-[3-({[(2,5-dichlorophenyl)methyl]amino}methyl)phenyl]-N-methylpyrazine-2-carboxamide] | 50 to 1000 nM
CNC(=O)c1nc(-c2cccc(CNCc3cc(Cl)cc(Cl)c3)c2)cnc1N [Example 409, 3-amino-6-[3-({[(3,5-dichlorophenyl)methyl]amino}methyl)phenyl]-N-methylpyrazine-2-carboxamide] | < 50 nM
CNC(=O)c1nc(-c2cccc(NCCc3ccccc3)c2)cnc1N [Example 410, 3-amino-N-methyl-6-{3-[(2-phenylethyl)amino]phenyl}pyrazine-2-carboxamide] | 50 to 1000 nM
CNC(=O)c1nc(-c2cncc(C(=O)NCc3ccc4c(c3)OCCO4)c2)cnc1N [Example 411, 3-amino-6-(5-{[(2,3-dihydro-1,4-benzodioxin-6-ylmethyl)amino]carbonyl}pyridin-3-yl)-N-methylpyrazine-2-carboxamide] | 50 to 1000 nM
CNC(=O)c1nc(-c2cccc(C(=O)NCCNc3ccccc3)c2)cnc1N [Example 412, 3-amino-N-methyl-6-[3-({[2-(phenylamino)ethyl]amino}carbonyl)phenyl]pyrazine-2-carboxamide] | 50 to 1000 nM
CCc1ccc(CNC(=O)c2cccc(-c3cnc(N)c(C(=O)NC)n3)c2)cc1 [Example 413, 3-amino-6-[3-({[(4-ethylphenyl)methyl]amino}carbonyl)phenyl]-N-methylpyrazine-2-carboxamide] | 50 to 1000 nM
CNC(=O)c1nc(-c2cccc(C(=O)NCc3ccc(-c4cccnc4)cc3)c2)cnc1N [Example 414, 3-amino-N-methyl-6-[3-({[(4-pyridin-3-ylphenyl)methyl]amino}carbonyl)phenyl]pyrazine-2-carboxamide] | 50 to 1000 nM
CNC(=O)c1nc(-c2cccc(CNC3Cc4ccccc4C3)c2)cnc1N [Example 415, 3-amino-6-{3-[(2,3-dihydro-1H-inden-2-ylamino)methyl]phenyl}-N-methylpyrazine-2-carboxamide] | < 50 nM
CNC(=O)c1nc(-c2cccc(CN3Cc4ccccc4C3)c2)cnc1N [Example 416, 3-amino-6-[3-(1,3-dihydro-2H-isoindol-2-ylmethyl)phenyl]-N-methylpyrazine-2-carboxamide] | 50 to 1000 nM
CNC(=O)c1nc(-c2cccc(CN[C@@H]3CCc4ccccc43)c2)cnc1N [Example 417, 3-amino-6-(3-{[(1R)-2,3-dihydro-1H-inden-1-ylamino]methyl}phenyl)-N-methylpyrazine-2-carboxamide] | 50 to 1000 nM
CNC(=O)c1nc(-c2cccc(CN[C@H]3CCc4ccccc43)c2)cnc1N [Example 418, 3-amino-6-(3-{[(1S)-2,3-dihydro-1H-inden-1-ylamino]methyl}phenyl)-N-methylpyrazine-2-carboxamide] | < 50 nM
CNC(=O)c1nc(-c2cccc(CNCc3cc(F)c(F)c(F)c3)c2)cnc1N [Example 419, 3-amino-N-methyl-6-[3-({[(3,4,5-trifluorophenyl)methyl]amino}methyl)phenyl]pyrazine-2-carboxamide] | < 50 nM
CNC(=O)c1nc(-c2cccc(CN[C@H](C)c3ccccc3)c2)cnc1N [Example 420, 3-amino-N-methyl-6-[3-({[(1R)-1-phenylethyl]amino}methyl)phenyl]pyrazine-2-carboxamide] | 50 to 1000 nM
CNC(=O)c1nc(-c2cccc(CN[C@@H]3c4ccccc4C[C@@H]3O)c2)cnc1N [Example 421, 3-amino-6-[3-({[(1R,2S)-2-hydroxy-2,3-dihydro-1H-inden-1-yl]amino}methyl)phenyl]-N-methylpyrazine-2-carboxamide] | < 50 nM
CNC(=O)c1nc(-c2cccc(CNCc3ccc(-c4cccs4)cc3)c2)cnc1N [Example 422, 3-amino-N-methyl-6-{3-[({[4-(2-thienyl)phenyl]methyl}amino)methyl]phenyl}pyrazine-2-carboxamide] | < 50 nM
CNC(=O)c1nc(-c2cccc(CNCc3cccc(-c4csnn4)c3)c2)cnc1N [Example 423, 3-amino-N-methyl-6-{3-[({[3-(1,2,3-thiadiazol-4-yl)phenyl]methyl}amino)methyl]phenyl}pyrazine-2-carboxamide] | 50 to 1000 nM
CCCc1ccc(CNC(=O)c2cccc(-c3cnc(N)c(C(=O)NC)n3)c2)cc1 [Example 424, 3-amino-N-methyl-6-[3-({[(4-propylphenyl)methyl]amino}carbonyl)phenyl]pyrazine-2-carboxamide] | 50 to 1000 nM
CNC(=O)c1nc(-c2cccc(CNCc3ccc(Cl)cc3F)c2)cnc1N [Example 425, 3-amino-6-[3-({[(4-chloro-2-fluorophenyl)methyl]amino}methyl)phenyl]-N-methylpyrazine-2-carboxamide] | 50 to 1000 nM
CNC(=O)c1nc(-c2cccc(CNCc3cccc(C(F)(F)F)c3)c2)cnc1N [Example 426, 3-amino-N-methyl-6-{3-[({[3-(trifluoromethyl)phenyl]methyl}amino)methyl]phenyl}pyrazine-2-carboxamide] | 50 to 1000 nM
